# Measured values published in patent US9302999B2, “Substituted triazoles as herbicides” (E. I. DU PONT DE NEMOURS AND COMPANY, priority 2012, dated 2016).
# Key:
# Format in all cases: in vivo
# [1] = system: barnyardgrass (Echinochloa crus-galli); experiment: Test A pre-/postemergence: barnyardgrass
# Method in brief: (§1)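 Pre: directed soil spray after planting in loam + sand. Post: same formulation (non-phytotoxic solvent + surfactant) on 1–2-leaf plants, 2–10 cm. Greenhouse ~10 d; visual injury 0–100 vs untreated.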
# [2] = system: crabgrass, large (large crabgrass, Digitaria sanguinalis); experiment: Test A pre-/postemergence: crabgrass, large
# Method in brief: as §1
# [3] = system: foxtail, giant (giant foxtail, Setaria faberii); experiment: Test A pre-/postemergence: foxtail, giant
# Method in brief: as §1
# [4] = system: morningglory (Ipomoea spp.); experiment: Test A pre-/postemergence: morningglory
# Method in brief: as §1
# [5] = system: pigweed (Amaranthus retroflexus); experiment: Test A pre-/postemergence: pigweed
# Method in brief: as §1
# [6] = system: velvetleaf (Abutilon theophrasti); experiment: Test A pre-/postemergence: velvetleaf
# Method in brief: as §1
# [7] = system: wheat (Triticum aestivum); experiment: Test A pre-/postemergence: wheat
# Method in brief: as §1
# corn (Zea mays) = experiment: Test A pre-/postemergence: corn
# Method in brief: as §1
# rice (Oryza sativa) = experiment: Test B flooded paddy: rice; settings: Flood; 125 g ai/ha; applied to paddy water at 2-leaf stage; visually evaluated after 13 to 15 days
# Method in brief: (§2)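 Response scored visually, 0–100 relative to controls, 13–15 days after the compound was applied into paddy water; plants were at the 2-leaf stage in pots kept flooded to 3 cm.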
# [8] = system: sedge, umbrella (small-flower umbrella sedge Cyperus difformis); experiment: Test B flooded paddy: sedge, umbrella; settings: Flood; 125 g ai/ha; applied to paddy water at 2-leaf stage; visually evaluated after 13 to 15 days
# Method in brief: as §2
# [9] = system: ducksalad (Heteranthera limosa); experiment: Test B flooded paddy: ducksalad; settings: Flood; 125 g ai/ha; applied to paddy water at 2-leaf stage; visually evaluated after 13 to 15 days
# Method in brief: as §2
# [10] = system: barnyardgrass (Echinochloa crus-galli); experiment: Test B flooded paddy: barnyardgrass; settings: Flood; 125 g ai/ha; applied to paddy water at 2-leaf stage; visually evaluated after 13 to 15 days
# Method in brief: as §2
# [11] = Postemergence, 1000 g ai/ha, visual rating on 0 to 100 scale (0 no effect, 100 complete control), approximately ten days
# [12] = Preemergence, 1000 g ai/ha, 0 to 100 scale, 0 is no effect, 100 is complete control
# [13] = Postemergence, 125 g ai/ha, 0 to 100 scale, 0 is no effect, 100 is complete control
# [14] = Postemergence, 500 g ai/ha, 0 to 100 scale, 0 is no effect, 100 is complete control
# [15] = Preemergence, 125 g ai/ha, 0 to 100 scale where 0 is no effect and 100 is complete control
# [16] = Preemergence, 500 g ai/ha, 0 to 100 scale (0 no effect, 100 complete control)
Compound,"Plant response rating, Rice (0 to 100 scale, 0 is no effect, 100 is complete control) (rice (Oryza sativa))","Plant response rating, Sedge, Umbrella (0 to 100 scale, 0 is no effect, 100 is complete control) [8]","Plant response rating, Ducksalad (0 to 100 scale, 0 is no effect, 100 is complete control) [9]","Plant response rating, Barnyardgrass (0 to 100 scale, 0 is no effect, 100 is complete control) [10]","Plant response rating, Barnyardgrass [1, 13]","Barnyardgrass plant response rating [1, 14]","Plant response rating, Barnyardgrass [1, 15]","Plant response rating, Barnyardgrass [1, 16]","Plant response rating, Crabgrass, Large [2, 13]","Crabgrass, Large plant response rating [2, 14]","Plant response rating, Crabgrass, Large [2, 15]","Plant response rating, Crabgrass, Large [2, 16]","Plant response rating, Foxtail, Giant [3, 13]","Foxtail, Giant plant response rating [3, 14]","Plant response rating, Foxtail, Giant [3, 15]","Plant response rating, Foxtail, Giant [3, 16]","Plant response rating, Morningglory [4, 13]","Morningglory plant response rating [4, 14]","Plant response rating, Morningglory [4, 15]","Plant response rating, Morningglory [4, 16]",further results
Cc1nn(-c2ccc(F)cc2)nc1C(=O)c1ccnc(C(F)(F)F)c1 [Compound 167],30,50,0,0,,,,,,,,,,,,,,,,,"Barnyardgrass plant response rating [1, 11]: 100; Plant response rating, Barnyardgrass [1, 12]: 100; Crabgrass, Large plant response rating [2, 11]: 100; Plant response rating, Crabgrass, Large [2, 12]: 100; Foxtail, Giant plant response rating [3, 11]: 100; Plant response rating, Foxtail, Giant [3, 12]: 100; Morningglory plant response rating [4, 11]: 100; Pigweed plant response rating [5, 11]: 100; Plant response rating, Pigweed [5, 12]: 100; Velvetleaf plant response rating [6, 11]: 50; Plant response rating, Velvetleaf [6, 12]: 20; Wheat plant response rating [7, 11]: 40; Plant response rating, Wheat [7, 12]: 80; Corn plant response rating (corn (Zea mays); [11]): 30; Plant response rating, Corn (corn (Zea mays); [12]): 30"
CC(C)(C)c1nn(-c2ccc(F)cc2)nc1Cc1ccnc(C(F)(F)F)c1 [Compound 176],0,0,0,0,0,0,0,0,0,0,0,0,0,0,0,0,0,0,0,0,"Plant response rating, Pigweed [5, 13]: 0; Pigweed plant response rating [5, 14]: 0; Plant response rating, Pigweed [5, 15]: 0; Plant response rating, Pigweed [5, 16]: 0; Plant response rating, Velvetleaf [6, 13]: 0; Velvetleaf plant response rating [6, 14]: 0; Plant response rating, Velvetleaf [6, 15]: 0; Plant response rating, Velvetleaf [6, 16]: 0; Plant response rating, Wheat [7, 13]: 0; Wheat plant response rating [7, 14]: 0; Plant response rating, Wheat [7, 15]: 0; Plant response rating, Wheat [7, 16]: 0; Plant response rating, Corn (corn (Zea mays); [13]): 0; Corn plant response rating (corn (Zea mays); [14]): 0; Plant response rating, Corn (corn (Zea mays); [15]): 0; Plant response rating, Corn (corn (Zea mays); [16]): 0"
CCOc1nn(-c2ccc(F)cc2)nc1C(=O)c1ccnc(C(F)(F)F)c1 [Compound 177],0,40,0,0,0,20,0,70,10,60,90,100,20,70,90,100,90,100,20,40,"Plant response rating, Pigweed [5, 13]: 60; Pigweed plant response rating [5, 14]: 100; Plant response rating, Pigweed [5, 15]: 10; Plant response rating, Pigweed [5, 16]: 50; Plant response rating, Velvetleaf [6, 13]: 20; Velvetleaf plant response rating [6, 14]: 50; Plant response rating, Velvetleaf [6, 15]: 0; Plant response rating, Velvetleaf [6, 16]: 20; Plant response rating, Wheat [7, 13]: 20; Wheat plant response rating [7, 14]: 30; Plant response rating, Wheat [7, 15]: 0; Plant response rating, Wheat [7, 16]: 0; Plant response rating, Corn (corn (Zea mays); [13]): 20; Corn plant response rating (corn (Zea mays); [14]): 30; Plant response rating, Corn (corn (Zea mays); [15]): 0; Plant response rating, Corn (corn (Zea mays); [16]): 0"
CCc1nn(-c2ccc(F)c(C(F)(F)F)c2)nc1Oc1ccnc(C(F)(F)F)c1 [Compound 180],30,70,60,0,50,80,60,80,90,90,100,100,90,90,100,100,100,100,40,70,"Plant response rating, Pigweed [5, 13]: 100; Pigweed plant response rating [5, 14]: 100; Plant response rating, Pigweed [5, 15]: 100; Plant response rating, Pigweed [5, 16]: 100; Plant response rating, Velvetleaf [6, 13]: 70; Velvetleaf plant response rating [6, 14]: 100; Plant response rating, Velvetleaf [6, 15]: 50; Plant response rating, Velvetleaf [6, 16]: 60; Plant response rating, Wheat [7, 13]: 30; Wheat plant response rating [7, 14]: 40; Plant response rating, Wheat [7, 15]: 20; Plant response rating, Wheat [7, 16]: 40; Plant response rating, Corn (corn (Zea mays); [13]): 20; Corn plant response rating (corn (Zea mays); [14]): 30; Plant response rating, Corn (corn (Zea mays); [15]): 10; Plant response rating, Corn (corn (Zea mays); [16]): 20"
